In patent US8354402B2, “Polyarylcarboxamides useful as lipid lowering agents” (Janssen Pharmaceutica N.V., priority 2000, dated 2013):

Tested on: ApoB secretion, HepG2 cells
Experiment: Quantification of the secretion of ApoB (HepG2 cells, immunoprecipitation, scintillation counting)
Assay type: cell-based
Details: Homo sapiens, 24 hours of incubation
Protocol: C.1. Quantification of the Secretion of ApoB
HepG2 cells were cultured in 24-well plates in Minimal Essential Medium Rega 3 containing 10% fetal calf serum. Rega 3 has the following composition: CaCl2 (264 μg/ml), KCl (400 μg/ml), MgSO4.7H2O (200 μg/ml), NaCl (6800 μg/ml), NaHCO3 (850 μg/ml), NaH2PO4.H2O (158 μg/ml), D-glucose (1000 μg/ml), phenol red (10 μg/ml), L-alanine (8.9 μg/ml), L-arginine HCl (12 μg/ml), L-asparagine.H2O (15 μg/ml), L-aspartic acid (13.3 μg/ml), L-cystine (24 μg/ml), L-glutamic acid (14.7 μg/ml), glycine (7.5 μg/ml), L-histidine.HCl .H2O (42 μg/ml), L-isoleucine (52 μg/ml), L-leucine (52 μg/ml), L-lysine.HCl (72.5 μg/ml), L-methionine (15 μg/ml), L-phenylalanine (32 μg/ml), L-proline (11.5 μg/ml), L-serine (10.5 μg/ml), L-threonine (48 μg/ml), L-tryptophan (10 μg/ml), L-tyrosine (36 μg/ml), L-valine (46 μg/ml), D-Ca pantothenate (1 μg/ml), choline chloride (1 μg/ml), folic acid (1 μg/ml), 1-enositol (2 μg/ml), nicotinamide (1 μg/ml), pyridoxal HCl (1 μg/ml), riboflavin (0.1 μg/ml) and thiamine HCl (1 μg/ml).
At 70% confluency, the medium was changed and the test compound or carrier (dimethylsulfoxide, 0.4% final concentration) was added. After 24 hours of incubation, the medium was transferred to Eppendorf tubes and cleared by centrifugation. A sheep antibody directed against either apo B was added to the supernatant and the mixture was kept at 8° C. for 24 hours. Then, rabbit anti-sheep antibody was added and the immune complex was allowed to precipitate for 24 hours at 8° C. The immunoprecipitate was pelleted by centrifugation for 25 minutes at 1320 g and washed twice with a buffer containing 40 mM 4-morpholinepropanesulfonic acid, 40 mM NaH2PO4, 100 mM NaF, 0.2 mM dithiothreitol, 5 mM ethylenediamine tetraacetic acid, 5 mM ethylenebis (oxyethylenenitrilo) tetraacetic acid, 1% Triton-X-100, 0.5% sodium deoxycholate, 0.1% sodium dodecylsulphate, 0.2 μM leupeptin and 0.2 μM phenylmethylsulphonylfluoride. Radioactivity in the pellet was quantified by liquid scintillation counting.
Resulting IC50 values are enumerated in Table C.1 for a number of compounds No. 1 to No. 123.

Point of comparison: CCNC(=O)N(c1ccccc1)C1CCN(c2ccc(NC(=O)c3ccccc3-c3ccc(C(F)(F)F)cc3)cc2)CC1 [Co. No. 252], IC50 12.2 nM. Against it:
- CC(=O)N(c1ccccc1)C1CCN(c2ccc(NC(=O)c3ccccc3-c3ccc(C(F)(F)F)cc3)cc2)CC1 [Co. No. 253] — 11-fold higher, 130 nM

Same assay, conditions: Homo sapiens, HepG2, 24 h, 24 hours of incubation

Point of comparison: CC(C)NC(=O)C(c1ccccc1)C1CCN(c2ccc(NC(=O)c3ccccc3COc3ccccc3)cc2)CC1 (centres unmarked) [Co. No. 25], IC50 287 nM. Against it:
- CCNC(=O)C(c1ccccc1)C1CCN(c2ccc(NC(=O)c3ccccc3-c3ccc(Cl)c(Cl)c3)cc2)CC1 (centres unmarked) [Co. No. 88] — lower, ≤ 30 nM
- COC(=O)C(c1ccccc1)N1CCN(c2ccc(NC(=O)c3ccccc3-c3ccc(C(F)(F)F)cc3)cc2Cl)CC1 (centres unmarked) [Co. No. 205] — 6-fold lower, 47.5 nM
- CCNC(=O)C(c1ccccc1)N1CCN(c2ccc(NC(=O)c3cc(Cl)ccc3-c3ccc(C(F)(F)F)cc3)cc2)CC1 (centres unmarked) [Co. No. 200] — 3.6-fold lower, 80.2 nM
- CCNC(=O)C(c1ccccc1)C1CCN(c2ccc(NC(=O)c3ccccc3-c3ccccc3OC)cc2)CC1 (centres unmarked) [Co. No. 135] — 1.9-fold lower, 149 nM
- COC(=O)C(c1ccccc1)N1CCN(c2ccc(NC(=O)c3cc(C)ccc3-c3ccc(C(F)(F)F)cc3)cc2)CC1 (centres unmarked) [Co. No. 189] — 2.7-fold lower, 105 nM
- O=C(Nc1ccc(N2CCC(C(C(=O)Oc3ccccc3)c3ccccc3)CC2)cc1)c1ccccc1-c1ccc(C(F)(F)F)cc1 (centres unmarked) [Co. No. 175] — lower, < 30 nM
- CC(C)=CCOC(=O)C(c1ccccc1)N1CCC(c2ccc(NC(=O)c3ccccc3-c3ccc(C(F)(F)F)cc3)cc2)CC1 (centres unmarked) [Co. No. 220] — lower, < 30 nM
- COC(=O)C(c1ccccc1)N1CCN(c2ccc(NC(=O)c3cc(OC)c(OC)cc3-c3ccc(C(F)(F)F)cc3)cc2)CC1 (centres unmarked) [Co. No. 193] — within 1.5-fold, 235 nM
- CCCNC(=O)C(c1ccccc1)C1CCN(c2ccc(NC(=O)c3ccccc3OCc3ccccc3)cc2)CC1 (centres unmarked) [Co. No. 18] — within 1.5-fold, 206 nM
- COC(=O)C(c1ccccc1)N1CCN(c2ccc(NC(=O)c3ccccc3-c3ccc(Cl)cc3)cc2)CC1 (centres unmarked) [Co. No. 159] — 2.7-fold lower, 106 nM
- COC(=O)C(c1ccccc1)N1CCN(c2ccc(NC(=O)c3ccc(Cl)cc3-c3ccc(C(F)(F)F)cc3)cc2)CC1 (centres unmarked) [Co. No. 192] — 1.8-fold lower, 158 nM
- COC(=O)C(c1ccccc1)C1CCN(c2ccc(NC(=O)c3ccccc3-c3ccccc3)cc2)CC1 (centres unmarked) [Co. No. 157] — 2.7-fold lower, 107 nM
- O=C(Nc1ccc(C2=CCN(C(C(=O)OCc3ccccc3)c3ccccc3)CC2)cc1)c1ccccc1-c1ccc(C(F)(F)F)cc1 (centres unmarked) [Co. No. 168] — 2.2-fold lower, 132 nM
- O=C(Nc1ccc(N2CCC(C(C(=O)NCc3ccccc3)c3ccccc3)CC2)cc1)c1ccccc1-c1cc(Cl)cc(Cl)c1 (centres unmarked) [Co. No. 50] — 3.1-fold lower, 93.8 nM
- CCCNC(=O)C(c1ccccc1)C1CCN(c2ccc(NC(=O)c3ccccc3Cc3ccccc3)cc2)CC1 (centres unmarked) [Co. No. 20] — 3.4-fold higher, 989 nM
- CCNC(=O)C(c1ccccc1)N1CCN(c2ccc(NC(=O)c3cc(C)ccc3-c3ccc(C(F)(F)F)cc3)cc2)CC1 (centres unmarked) [Co. No. 198] — 3.9-fold lower, 73.1 nM
- CCNC(=O)C(c1ccccc1)N1CCCN(c2ccc(NC(=O)c3ccccc3-c3ccc(C(F)(F)F)cc3)cc2)CC1 (centres unmarked) [Co. No. 122] — within 1.5-fold, 414 nM
- CC(C)NC(=O)C(c1ccccc1)C1CCN(c2ccc(NC(=O)c3ccccc3CSc3ccccc3)cc2)CC1 (centres unmarked) [Co. No. 24] — 3-fold higher, 847 nM
- O=C(Nc1ccc(N2CCC(C(C(=O)Nc3ccccc3)c3ccccc3)CC2)cc1)c1ccccc1-c1ccccc1 (centres unmarked) [Co. No. 30] — 1.7-fold lower, 165 nM
- O=C(Nc1ccc(N2CCN(C(C(=O)OCc3ccccc3)c3ccccc3)CC2)cc1)c1ccccc1-c1ccccc1 (centres unmarked) [Co. No. 147] — the same, 287 nM
- COC(=O)C(c1ccccc1)N1CCN(c2ccc(NC(=O)c3ccccc3-c3ccc(C(F)(F)F)cc3)cc2C(F)(F)F)CC1 (centres unmarked) [Co. No. 210] — 1.7-fold higher, 483 nM
- COc1ccccc1-c1ccccc1C(=O)Nc1ccc(N2CCC(C(C(=O)NCc3ccccc3)c3ccccc3)CC2)cc1 (centres unmarked) [Co. No. 101] — within 1.5-fold, 207 nM
- O=C(Nc1ccc(N2CCC(C(C(=O)Nc3ccccc3)c3ccccc3)CC2)cc1)c1ccccc1-c1cccc2ccccc12 (centres unmarked) [Co. No. 137] — 6.2-fold higher, 1770 nM
- CCCCCNC(=O)C(CN1CCN(c2ccc(NC(=O)c3ccccc3-c3ccc(C(F)(F)F)cc3)cc2)CC1)c1ccccc1 (centres unmarked) [Co. No. 65] — within 1.5-fold, 240 nM
- COC(=O)C(c1ccccc1)C1CCN(c2ccc(NC(=O)c3cccc(C)c3-c3ccc(C(C)(C)C)cc3)cc2)CC1 (centres unmarked) [Co. No. 237] — lower, < 30 nM
- COC(=O)C(c1ccc(Cl)cc1Cl)N1CCN(c2ccc(NC(=O)c3ccccc3-c3ccc(C(F)(F)F)cc3)cc2)CC1 (centres unmarked) [Co. No. 259] — within 1.5-fold, 420 nM
- CCCNC(=O)C(c1ccccc1)C1CCN(c2ccc(NC(=O)c3ccccc3-c3cccc(C(F)(F)F)c3)cc2)CC1 (centres unmarked) [Co. No. 48] — 2.2-fold higher, 634 nM
- CCCNC(=O)C(c1ccccc1)C1CCN(c2ccc(NC(=O)c3ccccc3-c3ccccc3C(F)(F)F)cc2)CC1 (centres unmarked) [Co. No. 130] — within 1.5-fold, 360 nM
- COC(=O)C(c1ccccc1)N1CCN(c2ccc(NC(=O)c3ccc(F)cc3-c3ccc(C(F)(F)F)cc3)cc2)CC1 (centres unmarked) [Co. No. 185] — 5.9-fold lower, 48.8 nM
- O=C(Nc1ccc(N2CCC(C(C(=O)NCc3ccccc3)c3ccccc3)CC2)cc1)c1cccc2c1Cc1ccccc1-2 (centres unmarked) [Co. No. 4] — higher, ≥ 3000 nM
- CCCCNC(=O)C(c1ccccc1)N1CCC(c2ccc(NC(=O)c3ccccc3-c3ccc(C(F)(F)F)cc3)cc2)CC1 (centres unmarked) [Co. No. 73] — 47-fold lower, 6.08 nM
- O=C(Nc1ccc(N2CCC(C(C(=O)Nc3ccccc3)c3ccccc3)CC2)cc1)c1ccccc1COc1ccccc1 (centres unmarked) [Co. No. 32] — 8.3-fold higher, 2390 nM
- CCCNC(=O)C(CN1CCN(c2ccc(NC(=O)c3ccccc3-c3ccc(C(F)(F)F)cc3)cc2)CC1)c1ccccc1 (centres unmarked) [Co. No. 63, N-[4-[4-[3-oxo-2-phenyl-3-(propylamino)propyl]-1-piperazinyl]phenyl]-4′-(trifluoromethyl)-[1,1′-biphenyl]-2-carboxamide] — 2.4-fold lower, 122 nM
- O=C(Nc1ccc(N2CCC(C(C(=O)Nc3ccccc3)c3ccccc3)CC2)cc1)c1ccccc1Oc1ccccc1 (centres unmarked) [Co. No. 34] — 5.4-fold higher, 1550 nM
- CCCNC(=O)C(c1ccccc1)C1CCN(c2ccc(NC(=O)c3ccccc3-c3ccc(F)cc3)cc2)CC1 (centres unmarked) [Co. No. 44] — 3.6-fold higher, 1040 nM
- O=C(Nc1ccc(C2=CCN(C(C(=O)Nc3ccccc3)c3ccccc3)CC2)cc1)c1ccccc1-c1ccc(C(F)(F)F)cc1 (centres unmarked) [Co. No. 164] — 2.9-fold lower, 100 nM
- CCc1ccc(-c2ccccc2C(=O)Nc2ccc(N3CCC(C(C(=O)OC)c4ccccc4)CC3)cc2)cc1 (centres unmarked) [Co. No. 231] — lower, < 30 nM
- O=C(Nc1ccc(C2CCN(C(C(=O)Nc3ccccc3)c3ccccc3)CC2)cc1)c1ccccc1-c1ccccc1 (centres unmarked) [Co. No. 162] — 3-fold lower, 96.6 nM
- O=C(Nc1ccc(N2CCN(CC(C(=O)NCc3ccccc3)c3ccccc3)CC2)cc1)c1ccccc1-c1ccc(C(F)(F)F)cc1 (centres unmarked) [Co. No. 67] — within 1.5-fold, 247 nM
- O=C(Nc1ccc(C2CCN(C(C(=O)NCc3ccccc3)c3ccccc3)CC2)cc1)c1ccccc1-c1ccccc1 (centres unmarked) [Co. No. 161] — 4.2-fold lower, 68.9 nM
- O=C(Nc1ccc(N2CCC(C(C(=O)Nc3ccccc3)c3ccccc3)CC2)cc1)c1ccccc1-c1cccc(C(F)(F)F)c1 (centres unmarked) [Co. No. 118] — 2.3-fold lower, 127 nM
- CCNC(=O)C(c1ccccc1)N1CCN(c2ccc(NC(=O)c3ccccc3-c3ccc(C(F)(F)F)cc3)c(F)c2)CC1 (centres unmarked) [Co. No. 219] — 3.7-fold lower, 78.5 nM
- C=CCNC(=O)C(c1ccccc1)N1CCC(c2ccc(NC(=O)c3ccccc3-c3ccc(C(F)(F)F)cc3)cc2)CC1 (centres unmarked) [Co. No. 71] — 28-fold lower, 10.3 nM
- O=C(Nc1ccc(N2CCC(C(C(=O)Nc3ccccc3)c3ccccc3)CC2)cc1)c1ccccc1-c1ccccc1Cl (centres unmarked) [Co. No. 115] — 6-fold higher, 1710 nM
